For data set [1], the target named is T1, SARS-CoV-2 Spike S1 protein binding to ACE2-expressing A549 cells (Severe acute respiratory syndrome coronavirus 2, UniProt P0DTC2).
T1 construct: the HIS-tagged SARS-Cov2-S1 protein is added to each tube; ACE2: endogenous in A549 cells (ATCC)
The data set is classed as cell-based.

Data set [2] in a line: Maximum solubility of ectoine. The data set is classed as physicochemical. The source says: For a maximally saturated solute solution, concentrations that are just below the solubility limit of the respective solute are preferred. Such a highly concentrated solute solution can be used as a starting solution to prepare the solution required on site. In this way, individual solutions can be diluted depending on the administration required, the patient's condition (existing conditions, age, etc.) and/or desired therapy. This is especially beneficial when not differently concentrated solutions can be stored.

Data set [3] is described as follows: Osmolarity of ectoine solution. The data set is classed as physicochemical. The source says: An isotonic NaCl solution of 0.9% has an osmolar activity of 286 mOsmol/kg H2O. A 2% ectoine solution has an osmolarity of 147 mOsmol/kg H2O. An isotonic ectoine solution thus has a concentration of 3.89%.
Another data set can be described thus: Oral toxicity. The data set is classed as in vivo.
The nature of data set [4]: Plasma concentration after oral ectoine in rats. The data set is classed as in vivo. The note with it: 1000 mg/kg.

Experimental findings from patent US20230226056A1, “[…] FOR PREVENTING OR TREATING SARS-COV-2 INFECTIONS” (priority 2020, published 2023) are described below.

“Also recorded” adds a separate entry of the source.

Take `CC(=O)NCC[C@H](N)C(=O)O` [NADA, Nγ-Acetyl-L-2,4-diaminobutyric acid, reference compound]: in data set [1], the “Median (background-subtracted fluorescence, Mann Whitney test)” value is recorded as 1.820, n = 4; the “effect on Cov2 S1 protein binding to A549 cells” value is reported as “no effect”; the “effect on the binding between Cov2 S1 and the A549 cells” value was “No effect”; the “inhibition of the binding of the Cov2 S1 protein to A549 cells” value is “no inhibition; also recorded: little inhibition; also recorded: no significant effect”. Also, in data set [1], the “inhibitory effect on Cov2 S1 binding” value is listed as “comparable to untreated cells”.

`CC1=N[C@H](C(=O)O)CCN1` [ectoine, (4S)-2-Methyl-1,4,5,6-tetrahydropyrimidine-4-carbon acid]: in data set [1], the “Median (background-subtracted fluorescence, Mann Whitney test)” value is reported as 0.3050, n = 4; the “bound viral Cov2 S1 protein on the cell surface” value is listed as “less or no bound viral Cov2 S1 protein”; the “fluorescence of the Cov2 S1 protein bound to A549 cells” value is on record as “lower fluorescence”; the “inhibition of the binding of the Cov2 S1 protein to A549 cells” value is “complete inhibition; also recorded: positive effect”. The “inhibitory effect on Cov2 S1 binding” value in data set [1] is given as “significant”. Further, the maximum solubility entry in data set [2] (25° C.) is listed as “about 550 g/L”. In addition, in data set [2] (40° C.), the maximum solubility entry is recorded as “about 620 g/L”. This compound also had an osmolarity in data set [3] (2% ectoine solution) of 147 mOsmol/kg H2O. Besides, the “concentration of an isotonic ectoine solution” value in data set [3] (relative to isotonic 0.9% NaCl, 286 mOsmol/kg H2O) turned out to be 3.89%. This compound also had an NOAL in the data set “Oral toxicity” of 2000 mg/kg body weight/day. Also, in data set [4], the plasma concentration was found to be 99 µg/mL.
